In US10265307B2, “Thiazolecarboxamides and pyridinecarboxamide compounds useful as Pim kinase inhibitors” (Incyte Corporation, priority 2013, dated 2019):
Where two headings read alike, the source gives them in different places.

Legend:
Assay type in all cases: biochemical
Pim-2 = Pim-2 (Homo sapiens (Human), UniProt Q9P1W9); test: Pim-2 kinase assay
Experimental: Pim-2 kinase assay-20 μL reactions were run in white 384 well polystyrene plates dotted with 0.8 μL compound/DMSO in the assay buffer (50 mM Tris, pH 7.5, 0.01% Tween-20, 5 mM MgCl2, 0.01% BSA, 5 mM DTT), containing 0.05 μM Fluorescein-labeled CREBtide peptide substrate (Invitrogen PV3508), 1 mM ATP, and 1 nM enzyme (Invitrogen PV3649) for 2 h at 25° C. Reactions were stopped by addition of 10 μL TR-FRET Dilution Buffer (Invitrogen PV3574) with 30 mM EDTA and 1.5 nM LanthaScreen Tb-CREB pSer133 antibody (Invitrogen PV3566). After 30 min. incubation at room temperature, plates were read on a PHERAstar FS plate reader (BMG Labtech).
Although the above in vitro assays are conducted at 1 mM ATP compounds can also be evaluated for potency and in vitro activity against PIM targets utilizing Km conditions, where the concentration of ATP is set to the Km value and the assay is more sensitive to PIM inhibition activity.

Pim-1 = Pim-1 (Homo sapiens (Human), UniProt P11309); test: Pim-1 kinase assay; conditions: 1 mM ATP; read-out: Pim1 IC50
Experimental: Supplementation of the STOP buffer with beads and stopping the reactions were done under reduced light. Prior to the stopping reactions STOP buffer with beads was pre-incubated for 1 h in the dark at room temperature. After stopping the reactions, plates were incubated for 1 h in the dark at room temperature before reading on a PHERAstar FS plate reader (BMG Labtech) under reduced light.

Pim-3 = Pim-3 (Homo sapiens (Human), UniProt Q86V86); test: Pim-3 kinase assay; conditions: 1 mM ATP; read-out: Pim3 IC50
Experimental: Pim-1 and Pim-3 kinase assays-20 μL reactions were run in white 384 well polystyrene plates dotted with 0.8 μL compound/DMSO in the assay buffer (50 mM Tris, pH 7.5, 0.01% Tween-20, 5 mM MgCl2, 0.01% BSA, 5 mM DTT), containing 0.05 μM Biotin-labeled BAD peptide substrate (AnaSpec 62269), 1 mM ATP, and […] (Pim-1, Invitrogen PV3503) or […] (Pim-3, Millipore 14-738) enzyme for 1 h at 25° C. Reactions were stopped by addition of 10 μL STOP Buffer (150 mM Tris, pH=7.5, 150 mM NaCl, 75 mM EDTA, 0.01% Tween-20, 0.3% BSA) supplemented with Phospho-Bad (Ser112) Antibody (Cell Signaling 9291) diluted 666-fold, and Streptavidin donor beads (PerkinElmer 6760002) along with Protein-A acceptor beads (PerkinElmer 6760137) at 15 μg/mL each. Supplementation of the STOP buffer with beads and stopping the reactions were done under reduced light. Prior to the stopping reactions STOP buffer with beads was pre-incubated for 1 h in the dark at room temperature. After stopping the reactions, plates were incubated for 1 h in the dark at room temperature before reading on a PHERAstar FS plate reader (BMG Labtech) under reduced light.

Pim-2, sequence (Q9P1W9 whole entry): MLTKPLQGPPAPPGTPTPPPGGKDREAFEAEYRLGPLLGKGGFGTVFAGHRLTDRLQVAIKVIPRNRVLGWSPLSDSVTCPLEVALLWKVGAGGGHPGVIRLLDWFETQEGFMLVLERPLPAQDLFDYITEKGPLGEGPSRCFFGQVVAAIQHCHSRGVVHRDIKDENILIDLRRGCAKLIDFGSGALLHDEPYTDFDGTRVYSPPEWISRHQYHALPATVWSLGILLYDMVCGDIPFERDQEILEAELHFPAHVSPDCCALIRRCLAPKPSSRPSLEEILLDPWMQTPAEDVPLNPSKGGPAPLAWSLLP
Pim-1, sequence (P11309 whole entry): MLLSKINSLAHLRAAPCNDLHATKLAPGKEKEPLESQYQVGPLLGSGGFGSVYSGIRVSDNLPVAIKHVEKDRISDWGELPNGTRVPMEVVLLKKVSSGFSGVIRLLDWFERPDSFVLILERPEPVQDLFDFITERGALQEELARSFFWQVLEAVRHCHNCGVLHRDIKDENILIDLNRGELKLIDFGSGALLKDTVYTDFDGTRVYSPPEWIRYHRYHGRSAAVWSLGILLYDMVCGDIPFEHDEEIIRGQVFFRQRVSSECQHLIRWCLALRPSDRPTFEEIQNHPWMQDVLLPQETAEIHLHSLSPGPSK

| Compound | IC50 (Pim-2; 1 mM ATP, read-out: Pim2 IC50) [nM] | IC50 (Pim-1) [nM] | IC50 (Pim-3) [nM] | IC50 (Pim-2; Km ATP concentration rather than 1 mM, read-out: Pim2 IC50 at Km ATP concentration) [nM] |
| --- | --- | --- | --- | --- |
| C[C@H]1CN(c2c(NC(=O)c3ccc(F)c(-c4c(F)cccc4F)n3)cnc3c2CCC3O)C[C@@H](N)[C@@H]1O (mixture of isomers) [Example 37, N-{4-[(3R,4R,5S)-3-Amino-4-hydroxy-5-methylpiperidin-1-yl]-7-hydroxy-6,7-dihydro-5H-cyclopenta[b]pyridin-3-yl}-6-(2,6-difluorophenyl)-5-fluoropyridine-2-carboxamide] | ≤ 100 | ≤ 100 | ≤ 100 |  |
| Nc1sc(-c2c(F)cccc2F)nc1C(=O)Nc1cnc2c(c1N1CCC[C@H](N)C1)CCC2O (single isomer, unassigned) [15 (Diastereoisomer 1)] | ≤ 100 | ≤ 100 | ≤ 100 |  |
| Nc1sc(-c2c(F)cccc2F)nc1C(=O)Nc1cnc2c(c1N1CCC[C@H](N)C1)CCC2O (single isomer, unassigned) [15 (Diastereoisomer 2)] | ≤ 100 | ≤ 100 | ≤ 100 |  |
| N[C@H]1CCCN(c2c(NC(=O)c3csc(-c4c(F)cccc4F)n3)cnc3c2CCC3O)C1 (single isomer, unassigned) [16 (Diastereoisomer 1)] | > 2000 | ≤ 100 | ≤ 100 |  |
| N[C@H]1CCCN(c2c(NC(=O)c3csc(-c4c(F)cccc4F)n3)cnc3c2CCC3O)C1 (single isomer, unassigned) [16 (Diastereoisomer 2)] | > 2000 | ≤ 100 | ≤ 100 |  |
| N#CC1CCc2c1ncc(NC(=O)c1nc(-c3c(F)cccc3F)sc1N)c2N1CCC[C@H](N)C1 (single isomer, unassigned) [18 (Diastereoisomer 1)] | 100 to 1000 | ≤ 100 | ≤ 100 |  |
| N#CC1CCc2c1ncc(NC(=O)c1nc(-c3c(F)cccc3F)sc1N)c2N1CCC[C@H](N)C1 (single isomer, unassigned) [18 (Diastereoisomer 2)] | 100 to 1000 | ≤ 100 | ≤ 100 |  |
| CC1(O)CCc2c1ncc(NC(=O)c1nc(-c3c(F)cccc3F)sc1N)c2N1CCC[C@H](N)C1 (single isomer, unassigned) [19 (Diastereoisomer 1)] | > 2000 | ≤ 100 | 100 to 1000 |  |
| CC1(O)CCc2c1ncc(NC(=O)c1nc(-c3c(F)cccc3F)sc1N)c2N1CCC[C@H](N)C1 (single isomer, unassigned) [19 (Diastereoisomer 2)] | 100 to 1000 | ≤ 100 | ≤ 100 |  |
| N[C@H]1CCCN(c2c(NC(=O)c3ccc(F)c(-c4c(F)cccc4F)n3)cnc3c2CCC3O)C1 (single isomer, unassigned) [22 (Diastereoisomer 1)] | 100 to 1000 | ≤ 100 | ≤ 100 |  |
| N[C@H]1CCCN(c2c(NC(=O)c3ccc(F)c(-c4c(F)cccc4F)n3)cnc3c2CCC3O)C1 (single isomer, unassigned) [22 (Diastereoisomer 2)] | ≤ 100 | ≤ 100 | ≤ 100 |  |
| Nc1cc(F)c(-c2c(F)cccc2F)nc1C(=O)Nc1cnc2c(c1N1CCC[C@H](N)C1)CCC2O (single isomer, unassigned) [23 (Diastereoisomer 1)] | ≤ 100 | ≤ 100 | ≤ 100 |  |
| Nc1cc(F)c(-c2c(F)cccc2F)nc1C(=O)Nc1cnc2c(c1N1CCC[C@H](N)C1)CCC2O (single isomer, unassigned) [23 (Diastereoisomer 2)] | ≤ 100 | ≤ 100 | ≤ 100 |  |
| C[C@H]1CN(c2c(NC(=O)c3ccc(F)c(-c4c(F)cccc4F)n3)cnc3c2CCC3O)C[C@@H](N)[C@@H]1O (single isomer, unassigned) [37 (Diastereoisomer 1)] | ≤ 100 | ≤ 100 | ≤ 100 |  |
| C[C@H]1CN(c2c(NC(=O)c3ccc(F)c(-c4c(F)cccc4F)n3)cnc3c2CCC3O)C[C@@H](N)[C@@H]1O (single isomer, unassigned) [37 (Diastereoisomer 2)] | ≤ 100 | ≤ 100 | ≤ 100 |  |
| Nc1sc(-c2c(F)cccc2F)nc1C(=O)Nc1cnc2c(c1N1C[C@@H](N)C[C@@H](C(F)(F)F)C1)CCC2O (single isomer, unassigned) [44 (Diastereoisomer 1)] | ≤ 100 | ≤ 100 | ≤ 100 |  |

| Compound | IC50 (Pim-2; 1 mM ATP, read-out: Pim2 IC50) [nM] | IC50 (Pim-1) [nM] | IC50 (Pim-3) [nM] | IC50 (Pim-2; Km ATP concentration rather than 1 mM, read-out: Pim2 IC50 at Km ATP concentration) [nM] |
| --- | --- | --- | --- | --- |
| Nc1sc(-c2c(F)cccc2F)nc1C(=O)Nc1cnc2c(c1N1C[C@@H](N)C[C@@H](C(F)(F)F)C1)CCC2O (single isomer, unassigned) [44 (Diastereoisomer 2)] | ≤ 100 | ≤ 100 | ≤ 100 |  |
| C[C@@H]1C[C@H](N)CN(c2c(NC(=O)c3ccc(F)c(-c4c(F)cccc4F)n3)cnc3c2CCC3O)C1 (single isomer, unassigned) [45 (Diastereoisomer 1)] | ≤ 100 | ≤ 100 | ≤ 100 |  |
| C[C@@H]1C[C@H](N)CN(c2c(NC(=O)c3ccc(F)c(-c4c(F)cccc4F)n3)cnc3c2CCC3O)C1 (single isomer, unassigned) [45 (Diastereoisomer 2)] | ≤ 100 | ≤ 100 | ≤ 100 |  |
| C[C@@H]1C[C@H](N)CN(c2c(NC(=O)c3nc(-c4c(F)cccc4F)c(F)cc3N)cnc3c2CCC3O)C1 (single isomer, unassigned) [46 (Diastereoisomer 1)] | ≤ 100 | ≤ 100 | ≤ 100 |  |
| C[C@@H]1C[C@H](N)CN(c2c(NC(=O)c3nc(-c4c(F)cccc4F)c(F)cc3N)cnc3c2CCC3O)C1 (single isomer, unassigned) [46 (Diastereoisomer 2)] | ≤ 100 | ≤ 100 | ≤ 100 |  |
| C[C@@H]1C[C@H](N)CN(c2c(NC(=O)c3nc(-c4c(F)cccc4F)sc3N)cnc3c2CCC3O)C1 (single isomer, unassigned) [47 (Diastereoisomer 1)] | ≤ 100 | ≤ 100 | ≤ 100 |  |
| C[C@@H]1C[C@H](N)CN(c2c(NC(=O)c3nc(-c4c(F)cccc4F)sc3N)cnc3c2CCC3O)C1 (single isomer, unassigned) [47 (Diastereoisomer 2)] | ≤ 100 | ≤ 100 | ≤ 100 |  |
| C[C@H]1CN(c2c(NC(=O)c3nc(-c4c(F)cccc4F)c(F)cc3N)cnc3c2CCC3O)C[C@@H](N)[C@@H]1O (single isomer, unassigned) [48 (Diastereoisomer 1)] | 100 to 1000 | ≤ 100 | ≤ 100 |  |
| C[C@H]1CN(c2c(NC(=O)c3nc(-c4c(F)cccc4F)c(F)cc3N)cnc3c2CCC3O)C[C@@H](N)[C@@H]1O (single isomer, unassigned) [48 (Diastereoisomer 2)] | ≤ 100 | ≤ 100 | ≤ 100 |  |
| C[C@H]1CN(c2c(NC(=O)c3nc(-c4c(F)cccc4F)sc3N)cnc3c2CCC3O)C[C@@H](N)[C@@H]1O (single isomer, unassigned) [49 (Diastereoisomer 1)] | ≤ 100 | ≤ 100 | ≤ 100 |  |
| C[C@H]1CN(c2c(NC(=O)c3nc(-c4c(F)cccc4F)sc3N)cnc3c2CCC3O)C[C@@H](N)[C@@H]1O (single isomer, unassigned) [49 (Diastereoisomer 2)] | ≤ 100 | ≤ 100 | ≤ 100 |  |
| CCOc1cc(F)c(-c2nc(C(=O)Nc3cnc4c(c3N3C[C@@H](N)[C@H](O)[C@@H](C)C3)CCC4O)ccc2F)c(F)c1 (single isomer, unassigned) [51 (Diastereoisomer 1)] | ≤ 100 | ≤ 100 | ≤ 100 |  |
| CCOc1cc(F)c(-c2nc(C(=O)Nc3cnc4c(c3N3C[C@@H](N)[C@H](O)[C@@H](C)C3)CCC4O)ccc2F)c(F)c1 (single isomer, unassigned) [51 (Diastereoisomer 2)] | ≤ 100 | ≤ 100 | ≤ 100 |  |
| COc1ccc(F)c(-c2nc(C(=O)Nc3cnc4c(c3N3CCC[C@H](N)C3)CCC4O)c(N)s2)c1F (single isomer, unassigned) [53 (Diastereoisomer 1)] | ≤ 100 | ≤ 100 | ≤ 100 |  |
| N[C@H]1CCCN(c2c(NC(=O)c3csc(-c4c(F)cccc4F)n3)cnc3[nH]ncc23)C1 [compound 35] |  |  |  | 1000 to 10000 |
